Experimental data: ChEMBL document CHEMBL4823291, “Discovery of 5,6,7,8-tetrahydropyrido[3,4-d]pyrimidine derivatives as novel selective Axl inhibitors” (Bioorg Med Chem Lett, 2021)

Key:
[1] = molecular target: T1, Tyrosine-protein kinase receptor UFO (Homo sapiens, UniProt P30530); experiment: Inhibition of Axl (unknown origin) by cell free assay
T1 sequence (P30530 whole entry): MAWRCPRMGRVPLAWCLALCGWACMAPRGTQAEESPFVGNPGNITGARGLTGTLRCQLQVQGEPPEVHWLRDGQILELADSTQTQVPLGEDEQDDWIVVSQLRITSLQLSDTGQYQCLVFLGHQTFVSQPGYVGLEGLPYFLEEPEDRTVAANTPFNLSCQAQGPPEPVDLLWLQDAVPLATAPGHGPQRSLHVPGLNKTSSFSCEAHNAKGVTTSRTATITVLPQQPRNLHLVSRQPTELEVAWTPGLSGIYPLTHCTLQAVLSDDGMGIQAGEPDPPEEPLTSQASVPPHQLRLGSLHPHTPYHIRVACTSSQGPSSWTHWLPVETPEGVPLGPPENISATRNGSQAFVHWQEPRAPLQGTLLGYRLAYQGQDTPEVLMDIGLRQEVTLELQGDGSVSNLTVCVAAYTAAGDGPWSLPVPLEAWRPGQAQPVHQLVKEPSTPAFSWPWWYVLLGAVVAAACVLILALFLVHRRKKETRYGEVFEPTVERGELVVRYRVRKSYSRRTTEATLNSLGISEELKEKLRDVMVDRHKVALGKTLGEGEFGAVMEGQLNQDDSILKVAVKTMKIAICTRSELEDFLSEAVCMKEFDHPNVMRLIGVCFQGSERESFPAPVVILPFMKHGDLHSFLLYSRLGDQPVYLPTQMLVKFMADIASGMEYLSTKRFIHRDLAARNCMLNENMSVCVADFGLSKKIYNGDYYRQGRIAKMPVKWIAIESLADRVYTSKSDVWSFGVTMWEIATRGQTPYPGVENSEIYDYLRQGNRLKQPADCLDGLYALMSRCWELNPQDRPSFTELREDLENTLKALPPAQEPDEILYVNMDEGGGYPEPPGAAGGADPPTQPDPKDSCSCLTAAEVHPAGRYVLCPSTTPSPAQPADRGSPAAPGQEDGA

[2] = molecular target: T2, Tyrosine-protein kinase Mer (Homo sapiens, UniProt Q12866); experiment: Inhibition of Mer (unknown origin) by cell free assay
T2 sequence (Q12866 whole entry): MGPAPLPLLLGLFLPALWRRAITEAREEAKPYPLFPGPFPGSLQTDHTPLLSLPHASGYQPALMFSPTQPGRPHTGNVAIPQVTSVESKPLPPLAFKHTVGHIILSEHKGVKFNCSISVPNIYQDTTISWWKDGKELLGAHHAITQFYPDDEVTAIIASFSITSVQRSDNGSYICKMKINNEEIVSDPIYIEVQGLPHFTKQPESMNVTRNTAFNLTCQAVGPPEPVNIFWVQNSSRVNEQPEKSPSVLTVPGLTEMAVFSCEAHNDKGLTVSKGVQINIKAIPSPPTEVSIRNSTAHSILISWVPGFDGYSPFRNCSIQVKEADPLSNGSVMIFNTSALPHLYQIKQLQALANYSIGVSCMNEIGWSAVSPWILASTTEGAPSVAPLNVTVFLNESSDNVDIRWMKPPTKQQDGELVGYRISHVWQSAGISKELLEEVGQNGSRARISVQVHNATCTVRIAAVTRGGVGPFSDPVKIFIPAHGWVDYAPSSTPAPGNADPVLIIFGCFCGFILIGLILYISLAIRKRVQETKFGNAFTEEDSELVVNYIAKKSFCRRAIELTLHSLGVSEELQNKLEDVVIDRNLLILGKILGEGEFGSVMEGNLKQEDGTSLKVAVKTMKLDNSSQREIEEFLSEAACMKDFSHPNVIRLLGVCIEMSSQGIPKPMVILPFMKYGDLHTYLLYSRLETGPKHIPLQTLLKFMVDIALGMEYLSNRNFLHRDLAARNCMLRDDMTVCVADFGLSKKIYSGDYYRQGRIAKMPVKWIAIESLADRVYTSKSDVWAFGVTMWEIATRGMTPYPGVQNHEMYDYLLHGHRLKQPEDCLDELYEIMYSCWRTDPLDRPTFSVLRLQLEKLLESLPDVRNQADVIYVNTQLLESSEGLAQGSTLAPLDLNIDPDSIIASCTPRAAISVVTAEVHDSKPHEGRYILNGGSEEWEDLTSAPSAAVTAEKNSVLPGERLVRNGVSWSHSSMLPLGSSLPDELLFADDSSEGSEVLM

[3] = molecular target: T3, Tyrosine-protein kinase receptor UFO (Mus musculus, UniProt Q00993); experiment: Inhibition of Axl in mouse BaF3 cells; assay type: cell-based
T3 sequence (Q00993 whole entry): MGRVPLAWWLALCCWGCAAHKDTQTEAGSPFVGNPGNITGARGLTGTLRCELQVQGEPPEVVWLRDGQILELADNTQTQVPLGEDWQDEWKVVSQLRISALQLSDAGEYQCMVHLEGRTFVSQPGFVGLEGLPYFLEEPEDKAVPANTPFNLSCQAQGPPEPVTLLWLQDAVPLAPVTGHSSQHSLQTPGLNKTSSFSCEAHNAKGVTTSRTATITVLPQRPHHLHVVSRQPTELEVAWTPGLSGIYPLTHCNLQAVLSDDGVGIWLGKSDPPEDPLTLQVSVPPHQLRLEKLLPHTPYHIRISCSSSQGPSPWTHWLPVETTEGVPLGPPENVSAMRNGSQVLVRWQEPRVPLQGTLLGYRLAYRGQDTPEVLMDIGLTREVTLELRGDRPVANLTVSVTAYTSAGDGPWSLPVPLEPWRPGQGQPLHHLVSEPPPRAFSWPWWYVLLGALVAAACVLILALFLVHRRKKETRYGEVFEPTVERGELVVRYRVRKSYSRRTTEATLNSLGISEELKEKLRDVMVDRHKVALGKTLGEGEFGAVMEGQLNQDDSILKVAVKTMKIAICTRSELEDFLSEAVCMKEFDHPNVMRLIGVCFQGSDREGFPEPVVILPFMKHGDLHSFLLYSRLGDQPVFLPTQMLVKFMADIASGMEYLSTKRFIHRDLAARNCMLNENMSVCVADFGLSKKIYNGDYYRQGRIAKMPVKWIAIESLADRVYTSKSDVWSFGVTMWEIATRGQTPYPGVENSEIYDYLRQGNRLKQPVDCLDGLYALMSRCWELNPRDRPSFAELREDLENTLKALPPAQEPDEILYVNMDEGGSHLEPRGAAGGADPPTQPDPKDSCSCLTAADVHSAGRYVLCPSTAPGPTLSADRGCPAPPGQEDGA

Homo sapiens = species: Homo sapiens; experiment: Ratio of IC50 for Mer (unknown origin) to IC50 for Axl (unknown origin)
BaF3 = experiment: Ratio of IC50 for Mer in mouse BaF3 cells to IC50 for Axl in mouse BaF3 cells; assay type: cell-based
[4] = molecular target: T4, Tyrosine-protein kinase Mer (Mus musculus, UniProt Q60805); experiment: Inhibition of Mer in mouse BaF3 cells; assay type: cell-based
T4 sequence (Q60805 whole entry): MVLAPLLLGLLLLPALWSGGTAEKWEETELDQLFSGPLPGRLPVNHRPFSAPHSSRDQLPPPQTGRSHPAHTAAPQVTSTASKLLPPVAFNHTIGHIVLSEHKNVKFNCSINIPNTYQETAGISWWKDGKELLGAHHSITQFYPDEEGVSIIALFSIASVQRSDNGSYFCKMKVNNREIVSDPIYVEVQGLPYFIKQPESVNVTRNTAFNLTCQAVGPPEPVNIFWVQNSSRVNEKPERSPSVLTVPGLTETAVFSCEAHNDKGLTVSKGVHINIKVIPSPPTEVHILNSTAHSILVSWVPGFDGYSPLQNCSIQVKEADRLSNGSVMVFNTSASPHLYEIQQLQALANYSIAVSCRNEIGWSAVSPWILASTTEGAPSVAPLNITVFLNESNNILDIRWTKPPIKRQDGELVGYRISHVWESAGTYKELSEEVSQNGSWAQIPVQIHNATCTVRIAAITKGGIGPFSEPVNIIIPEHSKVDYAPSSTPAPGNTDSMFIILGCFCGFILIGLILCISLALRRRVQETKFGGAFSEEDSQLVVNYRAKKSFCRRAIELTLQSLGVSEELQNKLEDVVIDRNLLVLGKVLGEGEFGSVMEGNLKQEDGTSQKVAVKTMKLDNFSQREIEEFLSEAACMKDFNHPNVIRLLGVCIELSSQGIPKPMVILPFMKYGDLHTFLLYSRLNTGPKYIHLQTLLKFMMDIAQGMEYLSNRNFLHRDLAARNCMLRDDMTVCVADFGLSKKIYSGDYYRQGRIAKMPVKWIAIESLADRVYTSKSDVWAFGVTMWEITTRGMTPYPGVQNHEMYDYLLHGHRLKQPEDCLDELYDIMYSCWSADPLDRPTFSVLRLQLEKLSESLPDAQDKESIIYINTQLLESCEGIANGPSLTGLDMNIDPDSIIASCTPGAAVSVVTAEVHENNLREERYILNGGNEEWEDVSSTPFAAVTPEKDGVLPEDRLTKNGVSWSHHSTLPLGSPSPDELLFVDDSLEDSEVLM

Row | Structure (SMILES) | IC50 [1] [nM] | IC50 [2] [nM] | IC50 [3] [nM] | Ratio IC50 (Homo sapiens) | IC50 [4] [nM] | Ratio IC50 (BaF3)
1 | CC(C)n1cc(C(=O)Nc2ccc(Oc3ncnc4c3CN(C(=O)CCN3CCCC3)C4)c(F)c2)c(=O)n(-c2ccc(F)cc2)c1=O | 15 | 160 | 120 | 11 | 280 | 2.3
2 | CC(C)n1cc(C(=O)Nc2ccc(Oc3ncnc4c3CCN(C(=O)CCN3CCCC3)C4)c(F)c2)c(=O)n(-c2ccc(F)cc2)c1=O | 7.8 | 240 | 74 | 31 | 290 | 3.9
3 | CC(C)n1cc(C(=O)Nc2ccc(Oc3ncnc4c3CN(CC3CCN(C)CC3)C4)c(F)c2)c(=O)n(-c2ccc(F)cc2)c1=O | 6.2 | 69 | 32 | 11 | 80 | 2.5
4 | CC(C)n1cc(C(=O)Nc2ccc(Oc3ncnc4c3CN(C)C4)c(F)c2)c(=O)n(-c2ccc(F)cc2)c1=O | 22 | > 1000 | 220 | > 45 | 2600 | –
5 | CC(C)n1cc(C(=O)Nc2ccc(Oc3ncnc4c3CN(C(=O)CN3CCOCC3)C4)c(F)c2)c(=O)n(-c2ccc(F)cc2)c1=O | 16 | 230 | 270 | 14 | 730 | 2.7
6 | CC(C)n1cc(C(=O)Nc2ccc(Oc3ncnc4c3CCN(CC3CN(C)C3)C4)c(F)c2)c(=O)n(-c2ccc(F)cc2)c1=O | 6.3 | 77 | 22 | 12 | 92 | 4.2
7 | CC(C)Cn1cc(C(=O)Nc2ccc(Oc3ncnc4c3CCN(CC3CCN(C)CC3)C4)c(F)c2)c(=O)n(-c2ccc(F)cc2)c1=O | 5.5 | 110 | 46 | 20 | 110 | 2.4
8 | CC(C)n1cc(C(=O)Nc2ccc(Oc3ncnc4c3CN(C(=O)C3CC3)C4)c(F)c2)c(=O)n(-c2ccc(F)cc2)c1=O | 2.7 | < 4.1 | 12 | < 1.5 | 34 | 2.8

The next lines start with results.

Row | IC50 [1] [nM] | IC50 [2] [nM] | IC50 [3] [nM] | Ratio IC50 (Homo sapiens) | IC50 [4] [nM] | Structure (SMILES) | Ratio IC50 (BaF3)
9 | 3.5 | 34 | 20 | 9.7 | 79 | CC(C)n1cc(C(=O)Nc2ccc(Oc3ncnc4c3CCN(C3CCN(CC5CC5)CC3)C4)c(F)c2)c(=O)n(-c2ccc(F)cc2)c1=O | 4
10 | 6 | 33 | 42 | 5.5 | 110 | CC(C)n1cc(C(=O)Nc2ccc(Oc3ncnc4c3CN(C(=O)CN3CCN(C)CC3)C4)c(F)c2)c(=O)n(-c2ccc(F)cc2)c1=O | 2.6
11 | 64 | 270 | 150 | 4.2 | 810 | CC(C)n1cc(C(=O)Nc2ccc(Oc3ncnc4c3CN(C)CC4)c(F)c2)c(=O)n(-c2ccc(F)cc2)c1=O | 4.2
12 | 5.3 | > 1000 | 100 | > 189 | 440 | CC(C)n1cc(C(=O)Nc2ccc(Oc3ncnc4c3CCN(C(=O)C3CCC3)C4)c(F)c2)c(=O)n(-c2ccc(F)cc2)c1=O | 4.4
13 | 9.5 | 210 | 78 | 22 | 370 | CC(C)n1cc(C(=O)Nc2ccc(Oc3ncnc4c3CCN(CC(=O)N3CCN(C)CC3)C4)c(F)c2)c(=O)n(-c2ccc(F)cc2)c1=O | 4.7
14 | 2.7 | 51 | 7.9 | 19 | 34 | CN1CCC(CN2CCc3c(ncnc3Oc3ccc(NC(=O)c4cn(C5CCCC5)c(=O)n(-c5ccc(F)cc5)c4=O)cc3F)C2)CC1 | 4.3
15 | 6.6 | 530 | 110 | 80 | 570 | CC(C)n1cc(C(=O)Nc2ccc(Oc3ncnc4c3CCN(C)C4)c(F)c2)c(=O)n(-c2ccc(F)cc2)c1=O | –
